Residues, ends and D or L forms follow the SMILES beside them. *: point of attachment. PhAc = O=C(Cc1ccccc1)*
Tested on: Vero-E6 cells
Test: cells
Format: cell-based
Conditions: Chlorocebus sabaeus, Vero C1008, 24 h, read-out: PL_Result

Structure (SMILES) | activation at 10 µM [%]
NC[C@H]1O[C@H](O[C@H]2[C@H](O)[C@@H](O[C@H]3O[C@H](CO)[C@@H](O)[C@H](N)[C@H]3O)[C@H](N)C[C@@H]2N)[C@H](N)C[C@@H]1O [SPE_K96342952] | -3.75
CC1Cc2ccccc2N1NC(=O)c1ccc(Cl)c(S(N)(=O)=O)c1 (centres unmarked) [SPE_A95869247] | -11.5
O=C(O)c1cc(O)c2ccccc2n1 [SPE_K85872723] | -13
COc1nc(C)cnc1NS(=O)(=O)c1cccnc1-c1ccc(-c2nnco2)cc1 [SPE_K31553034] | -4.16
CCN(CCO)CCCOc1ccc2c(Nc3cc(CC(=O)Nc4cccc(F)c4)n[nH]3)ncnc2c1 [SPE_K63923597] | -6.57
Oc1ccc([C@H]2COc3cc(O)ccc3C2)cc1 [SPE_K54847683] | -12.7
Clc1ccc(Nc2nnc(Cc3ccncc3)c3ccccc23)cc1 [SPE_K70163715] | -2.12
CC(C)CN(C[C@@H](O)[C@H](Cc1ccccc1)NC(=O)O[C@H]1CCOC1)S(=O)(=O)c1ccc(N)cc1 [SPE_K47827687] | 0.458
CC[N+](CC)(CC)CCOc1ccc(/C=C/c2ccccc2)cc1 [SPE_K03128577] | 8.41
CC(=O)NCCc1c[nH]c2ccccc12 [SPE_K73700643] | -6.27
C[C@H](NC(=O)[C@@H](O)c1cc(F)cc(F)c1)C(=O)N[C@@H]1C(=O)N(C)c2ccccc2-c2ccccc21 [SPE_K20013301] | -13.5
CN(C(=O)c1ccc(F)cc1C(F)(F)F)C1CCN(c2nnc(-c3ccnn3C)c3ccccc23)CC1 [SPE_K50498985] | -8
CCCCCCCCCCCCCCCCCC(=O)OCC(O)[C@H]1OC[C@H](O)[C@H]1O (some centres unmarked) [SPE_A70197423] | -4.54
CC(C)(C)OC(=O)N[C@H]1CCCCC/C=C\[C@@H]2C[C@@]2(C(=O)NS(=O)(=O)C2CC2)NC(=O)[C@@H]2C[C@@H](OC(=O)N3Cc4cccc(F)c4C3)CN2C1=O [SPE_K08111240] | -7.46
CCOC(=O)CNC(=O)[C@@H]1CCCN1C(=O)Cc1ccccc1 [SPE_K22520627] (PhAc-Pro-Gly-OEt) | -4.57
CC(=O)C1(N)Cc2c(O)c3c(c(O)c2[C@@H](O[C@H]2C[C@H](O)[C@H](O)CO2)C1)C(=O)c1ccccc1C3=O (some centres unmarked) [SPE_K13843533] | 6.95
COc1c(C)cnc(Cn2cnc3c(Cl)nc(N)nc32)c1C [SPE_K51967704] | -7.08
Nc1nc2[nH]nnc2c(=O)[nH]1 [SPE_K53114651] | -1.39
O=[N+]([O-])c1cn2c(n1)OC[C@@H](OCc1ccc(OC(F)(F)F)cc1)C2 [SPE_K96671969] | -12.7

Structure (SMILES) | activation at 10 µM [%]
COc1ccc(C(=O)c2ccccc2O)c(O)c1 [SPE_K22193694] | -2.64
N#Cc1ccc(NCCNCC(=O)N2CCC[C@H]2C#N)nc1 [SPE_K77396579] | -14.3
O=C(Nc1c(Cl)cncc1Cl)c1ccc(OC(F)F)c(OCC2CC2)c1 [SPE_K03194791] | -2.86
CC(C)(C)c1ccc(-c2nc3ccccc3[nH]2)cc1 [SPE_K73073971] | 9.59
COc1nccc(-c2c(-c3ccc(F)cc3)ncn2C2CCNCC2)n1 [SPE_K19412355] | 14.6
O=C(Nc1ccc(S(=O)(=O)C(F)(F)F)cc1)C1=CCN(c2ncccc2C(F)(F)F)CC1 [SPE_K87665527] | 1.59
CCOC(=O)c1ccccc1OC(N)=O [SPE_K21892374] | 3.89
Cc1ccc(S(=O)(=O)NC(=O)NN2CCCCCC2)cc1 [SPE_K32164935] | -1.35
Nn1cnc2cc3ccccc3cc2c1=O [SPE_K31329721] | -8.33
CC(C)(C)NC[C@H](O)c1ccc(O)c(CO)c1 [SPE_K34469523] | -6.61
Oc1cc(O)c2c(c1)O[C@H](c1ccc(O)c(O)c1)[C@@H](O)C2 [SPE_K58736316] | -12.2
COc1ccccc1N1CCN(CCCCNC(=O)c2ccc3ccccc3c2)CC1 [SPE_K17378184] | 28.8
COCCN1CCC(C(=O)NO)(S(=O)(=O)c2ccc(Oc3ccc(OC(F)(F)F)cc3)cc2)CC1 [SPE_K51102532] | -13.6
CC(C)[C@]12O[C@H]1[C@@H]1O[C@]13[C@]1(O[C@H]1C[C@H]1C4=C(CC[C@@]13C)C(=O)OC4)[C@@H]2O [SPE_K81258678] | -5.53
Fc1ccc(C(OCCN2CCN(CCCc3ccccc3)CC2)c2ccc(F)cc2)cc1 [SPE_K32501161] | -3.21
Cc1cc(OCc2nc(-c3ccccc3Cl)cs2)ccc1OCC(=O)O [SPE_K19409553] | 5.84
C[C@@H](NC(=O)c1ncnc(N)c1Cl)c1ncc(C(=O)Nc2cc(C(F)(F)F)c(Cl)cn2)s1 [SPE_K43410529] | -2.41
Cc1c(Cl)cccc1S(=O)(=O)Nc1nc(NCCc2ccccc2)nc2c1CN(Cc1ccccc1)CC2 [SPE_K35772771] | -25
CNCCc1ccc(O)c(O)c1 [SPE_K33151569] | -7.82

Structure (SMILES) | activation at 10 µM [%]
O=c1c(-c2ccc(O)cc2)coc2cc(O)cc(O)c12 [SPE_K43797669] | 24.8
CC(CN)CC(=O)O (centres unmarked) [SPE_A62890442] | -10.6
O=C1NC(O)CCN1[C@@H]1O[C@H](CO)[C@@H](O)[C@H]1O (some centres unmarked) [SPE_A86248581] | -8.11
COc1cc2c(cc1OC)[C@@H]1CC(=O)[C@@H](CC(C)C)CN1CC2 [SPE_K95739795] | -5.22
NC[C@H]1O[C@H](O[C@H]2C(O[C@@H]3O[C@H](CO)[C@@H](O)[C@H]3O)[C@@H](O)[C@H](N)C[C@@H]2N)[C@H](N)[C@@H](O)[C@@H]1O (some centres unmarked) [SPE_A03826781] | -7.3
c1ccc(CCCCN2CCC(c3ccccc3)CC2)cc1 [SPE_K78061844] | 42.6
Nc1ncc(Cc2ccc(Br)cc2)s1 [SPE_K03808106] | -0.249
C[C@@H]1C[C@H]2[C@@H]3C[C@H](F)C4=CC(=O)C=C[C@]4(C)[C@@]3(Cl)[C@@H](O)C[C@]2(C)[C@H]1C(=O)COC(=O)C(C)(C)C [SPE_K38003476] | -1.81
CC(=O)Nc1ccc(C(=O)O)cc1 [SPE_K47195926] | 3.66
Cc1cccc(-c2n[nH]cc2-c2ccc3ncccc3n2)n1 [SPE_K80480517] | 0.32
COc1cc([S+](C)[O-])ccc1-c1nc2ncccc2[nH]1 (centres unmarked) [SPE_A22081593] | -4.2
CCS(=O)(=O)N1CCC[C@@H]2CN3CCc4cc(OC)ccc4[C@@H]3C[C@@H]21 [SPE_K86600316] | -8.68
Cc1csc(-c2nnc(Nc3ccc(Oc4ncccc4-c4ccnc(N)n4)cc3)c3ccccc23)c1 [SPE_K21728777] | -11.5
O=C(O)COCCN1CCN(C(c2ccccc2)c2ccc(Cl)cc2)CC1 (centres unmarked) [SPE_A42571354] | -3.1
CN1C(CSCC(F)(F)F)Nc2cc(Cl)c(S(N)(=O)=O)cc2S1(=O)=O (centres unmarked) [SPE_A15739803] | 0.385
C[C@@H]1CN(CC(=O)Nc2ccc3c(c2)Cc2cccc(-c4cc(=O)cc(N5CCOCC5)o4)c2S3)C[C@H](C)O1 [SPE_K36016295] | 15.1
CN1C(=O)N(c2cc(Cl)cc(Cl)c2)C(=O)[C@]12CN(Cc1cc(C(=O)O)cs1)C[C@H]2c1ccc(C#N)cc1 [SPE_K20093108] | -2.08
CC(C)S(=O)(=O)NC[C@H](C)c1ccc(-c2ccc(CCNS(C)(=O)=O)cc2)cc1 [SPE_K42981054] | -11.8
